This is an account of results in patent US10717736B2, “Pyrrole amides as alpha V integrin inhibitors” (BRISTOL-MYERS SQUIBB COMPANY, priority 2016, dated 2020).

For assay [1], the target named is T1, human αVβ6 Integrin (Homo sapiens, UniProt P06756+P18564).
T1 construct: purchased R & D systems 3817-AV
Kind of assay: human αVβ6 HTRF binding assay. How it is done: (§1) All binding assays used the HTRF (homogeneous time resolved fluorescence) technology from Cisbio International, therefore all assays are described as HTRF binding assays. The assay results for the Examples are listed above together with the characterization data. The HTRF binding assays are established for the following integrins: human αVβ6, human αVβ1, human αVβ3, human αVβ5, and human αVβ8. All assays used the following assay buffer: 20 mM Tris, pH 7.4, 1 mM MgCl2, 1 mM MnCl2, 0.01% Tween 20, and 0.01% BSA. Alternatively, a SPA-based assay was used for evaluation of receptor binding.
(§2) The following describes the components and a representative procedure for the human αVβ6 HTRF binding assay: Recombinant human αVβ6 Integrin (R & D systems, 3817-AV) was biotinylated. Biotinylated human αVβ6 Integrin was added to assay vessel at a final concentration of 1.25 nM. FITC-conjugated fibronectin (Cytoskeleton, FNR02) was then added at the final concentration of 5 nM. The mixture was centrifuged at 600 rpm for three minutes using Thermo Fisher Heraeus Multifuge X3 centrifuge and then incubated at RT for an hour. Streptavidin Terbium (Cisbio international 610STLB) was then added at the final concentration of 0.625 nM. The resulting mixture was centrifuged at 600 rpm for three minutes using Thermo Fisher Heraeus Multifuge X3 centrifuge and then incubated at room temperature overnight in dark before reading HTRF signals.
In general terms: Time-resolved FRET reads energy transfer from a long-lived donor to a nearby acceptor.

Assay [2] has as its target human αVβ1 (Homo sapiens, UniProt P05556+P06756). The assay is described as follows: human αVβ1 HTRF binding assay. How it is done: as §1, §2
The target in assay [3] is human αVβ5 (Homo sapiens, UniProt P06756+P18084). Kind of assay: human αVβ5 HTRF binding assay. How it is done:
as §1, §2

Assay [4] addresses human αVβ8 (Homo sapiens, UniProt P06756+P26012). Kind of assay: human αVβ8 HTRF binding assay. How it is done:
as §1, §2

Assay [5] deals with human αVβ3 (Homo sapiens, UniProt P05106+P06756). The assay is described as follows: human αVβ3 HTRF binding assay. How it is done: as §1, §2
human αVβ3, sequence (P06756 31-992 limits assumed): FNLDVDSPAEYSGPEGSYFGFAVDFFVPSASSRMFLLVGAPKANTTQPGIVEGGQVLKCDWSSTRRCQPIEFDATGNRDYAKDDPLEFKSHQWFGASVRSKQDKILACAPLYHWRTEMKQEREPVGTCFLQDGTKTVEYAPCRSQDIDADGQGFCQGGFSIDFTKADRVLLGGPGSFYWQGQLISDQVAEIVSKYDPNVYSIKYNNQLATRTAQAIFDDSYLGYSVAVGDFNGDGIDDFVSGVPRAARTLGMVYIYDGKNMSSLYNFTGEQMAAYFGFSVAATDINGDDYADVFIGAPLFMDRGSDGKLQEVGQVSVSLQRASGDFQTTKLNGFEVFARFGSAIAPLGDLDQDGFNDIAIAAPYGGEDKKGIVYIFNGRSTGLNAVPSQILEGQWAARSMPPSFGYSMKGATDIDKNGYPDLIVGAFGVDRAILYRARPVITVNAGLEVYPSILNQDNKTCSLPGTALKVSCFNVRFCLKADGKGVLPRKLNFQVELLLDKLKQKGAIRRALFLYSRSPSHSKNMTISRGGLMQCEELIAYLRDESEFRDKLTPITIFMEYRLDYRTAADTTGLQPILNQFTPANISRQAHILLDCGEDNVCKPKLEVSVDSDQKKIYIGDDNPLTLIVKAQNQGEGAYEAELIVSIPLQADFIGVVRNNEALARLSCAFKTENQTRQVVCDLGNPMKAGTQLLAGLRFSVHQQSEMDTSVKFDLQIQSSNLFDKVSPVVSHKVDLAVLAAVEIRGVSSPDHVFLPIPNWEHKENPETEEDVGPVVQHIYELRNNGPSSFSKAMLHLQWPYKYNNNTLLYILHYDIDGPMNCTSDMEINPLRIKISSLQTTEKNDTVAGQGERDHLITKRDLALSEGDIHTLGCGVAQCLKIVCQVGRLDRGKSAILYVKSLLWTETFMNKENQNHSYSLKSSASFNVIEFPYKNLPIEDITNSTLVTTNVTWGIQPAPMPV
human αVβ3, sequence (P05106 27-718 limits assumed): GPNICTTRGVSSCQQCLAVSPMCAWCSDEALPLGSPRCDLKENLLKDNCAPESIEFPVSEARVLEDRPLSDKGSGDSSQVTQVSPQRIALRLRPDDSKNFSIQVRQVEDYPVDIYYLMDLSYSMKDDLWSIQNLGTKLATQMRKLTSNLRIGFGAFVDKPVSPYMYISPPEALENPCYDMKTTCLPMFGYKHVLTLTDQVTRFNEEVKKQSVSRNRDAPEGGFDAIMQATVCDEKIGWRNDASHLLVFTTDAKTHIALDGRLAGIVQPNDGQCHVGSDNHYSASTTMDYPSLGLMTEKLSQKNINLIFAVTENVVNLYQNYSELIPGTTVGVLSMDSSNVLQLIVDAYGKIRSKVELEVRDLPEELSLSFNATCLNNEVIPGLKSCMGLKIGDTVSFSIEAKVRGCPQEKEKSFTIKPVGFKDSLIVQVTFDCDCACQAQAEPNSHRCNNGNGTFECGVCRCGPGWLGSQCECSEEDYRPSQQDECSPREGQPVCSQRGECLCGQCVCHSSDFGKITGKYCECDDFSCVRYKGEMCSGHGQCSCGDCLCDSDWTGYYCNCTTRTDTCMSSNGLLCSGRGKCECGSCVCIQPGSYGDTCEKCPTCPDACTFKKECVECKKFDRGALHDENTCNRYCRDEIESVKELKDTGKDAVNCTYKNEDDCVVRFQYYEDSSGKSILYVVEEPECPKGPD

Where a name gives a salt, the structure may show the parent alone.

As a reminder, the IC50 is the point on the concentration scale where inhibition reaches its midpoint. Read a high IC50 as lower potency.

human αVβ8, sequence (P06756 31-992 limits assumed): as the sequence (P06756 31-992 limits assumed) above
human αVβ8, sequence (P26012 43-684 limits assumed): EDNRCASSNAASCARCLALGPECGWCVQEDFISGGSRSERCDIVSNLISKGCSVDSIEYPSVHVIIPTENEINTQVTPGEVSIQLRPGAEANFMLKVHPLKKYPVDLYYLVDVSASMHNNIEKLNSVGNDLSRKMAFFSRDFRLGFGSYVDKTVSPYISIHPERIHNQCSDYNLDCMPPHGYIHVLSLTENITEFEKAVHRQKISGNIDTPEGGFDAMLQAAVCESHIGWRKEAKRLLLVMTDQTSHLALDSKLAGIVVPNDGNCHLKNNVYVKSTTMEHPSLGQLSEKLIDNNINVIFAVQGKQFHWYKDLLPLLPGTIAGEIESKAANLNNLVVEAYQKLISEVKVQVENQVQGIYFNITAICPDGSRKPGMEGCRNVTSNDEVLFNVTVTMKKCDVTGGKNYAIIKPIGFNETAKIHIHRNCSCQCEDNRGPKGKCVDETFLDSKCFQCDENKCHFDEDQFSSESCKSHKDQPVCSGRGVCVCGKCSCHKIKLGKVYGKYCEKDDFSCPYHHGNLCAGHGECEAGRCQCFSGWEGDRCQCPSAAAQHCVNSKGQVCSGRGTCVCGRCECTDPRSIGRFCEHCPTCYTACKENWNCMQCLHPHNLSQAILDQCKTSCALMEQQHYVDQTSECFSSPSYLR
human αVβ5, sequence (P06756 31-992 limits assumed): as the sequence (P06756 31-992 limits assumed) above
human αVβ5, sequence (P18084 24-719 limits assumed): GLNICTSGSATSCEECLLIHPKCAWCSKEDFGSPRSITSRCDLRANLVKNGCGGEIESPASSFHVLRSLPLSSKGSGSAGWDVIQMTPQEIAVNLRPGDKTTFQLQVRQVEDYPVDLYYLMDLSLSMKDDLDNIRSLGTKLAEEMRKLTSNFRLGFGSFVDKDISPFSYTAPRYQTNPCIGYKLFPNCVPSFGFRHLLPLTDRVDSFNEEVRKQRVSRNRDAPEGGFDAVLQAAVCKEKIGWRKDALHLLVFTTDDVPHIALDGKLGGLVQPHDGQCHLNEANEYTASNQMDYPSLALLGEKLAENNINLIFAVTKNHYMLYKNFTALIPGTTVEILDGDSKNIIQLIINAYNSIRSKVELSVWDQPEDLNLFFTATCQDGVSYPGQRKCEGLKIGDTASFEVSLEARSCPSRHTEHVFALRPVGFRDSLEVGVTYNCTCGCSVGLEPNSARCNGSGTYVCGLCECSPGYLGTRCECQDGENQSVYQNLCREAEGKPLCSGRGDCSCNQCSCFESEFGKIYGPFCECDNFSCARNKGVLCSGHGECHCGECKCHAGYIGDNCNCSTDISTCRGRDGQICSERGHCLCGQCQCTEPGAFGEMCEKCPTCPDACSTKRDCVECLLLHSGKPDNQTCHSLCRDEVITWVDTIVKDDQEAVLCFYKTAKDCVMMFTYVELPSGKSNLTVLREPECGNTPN
human αVβ1, sequence (P06756 31-992 limits assumed): as the sequence (P06756 31-992 limits assumed) above
human αVβ1, sequence (P05556 21-728 limits assumed): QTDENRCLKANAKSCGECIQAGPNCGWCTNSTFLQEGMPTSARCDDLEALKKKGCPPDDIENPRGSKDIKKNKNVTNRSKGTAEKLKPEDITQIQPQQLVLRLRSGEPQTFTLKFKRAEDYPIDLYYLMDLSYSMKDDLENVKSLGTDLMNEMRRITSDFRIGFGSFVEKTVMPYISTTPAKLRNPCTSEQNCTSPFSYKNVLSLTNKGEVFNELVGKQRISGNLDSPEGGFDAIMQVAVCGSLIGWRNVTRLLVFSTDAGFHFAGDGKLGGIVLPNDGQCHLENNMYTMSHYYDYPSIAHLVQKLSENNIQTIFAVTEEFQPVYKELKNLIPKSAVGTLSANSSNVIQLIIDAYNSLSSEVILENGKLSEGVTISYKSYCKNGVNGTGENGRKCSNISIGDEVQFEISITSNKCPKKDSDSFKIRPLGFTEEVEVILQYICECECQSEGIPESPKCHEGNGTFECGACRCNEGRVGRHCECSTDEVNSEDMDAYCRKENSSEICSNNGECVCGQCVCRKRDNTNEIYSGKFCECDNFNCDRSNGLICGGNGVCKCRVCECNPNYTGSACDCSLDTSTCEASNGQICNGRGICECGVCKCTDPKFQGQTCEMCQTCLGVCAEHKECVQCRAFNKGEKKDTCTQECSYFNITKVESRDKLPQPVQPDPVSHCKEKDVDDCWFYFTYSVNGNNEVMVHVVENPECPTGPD
T1 sequence (P06756 31-992 limits assumed): as the sequence (P06756 31-992 limits assumed) above
T1 sequence (P18564 22-707 limits assumed): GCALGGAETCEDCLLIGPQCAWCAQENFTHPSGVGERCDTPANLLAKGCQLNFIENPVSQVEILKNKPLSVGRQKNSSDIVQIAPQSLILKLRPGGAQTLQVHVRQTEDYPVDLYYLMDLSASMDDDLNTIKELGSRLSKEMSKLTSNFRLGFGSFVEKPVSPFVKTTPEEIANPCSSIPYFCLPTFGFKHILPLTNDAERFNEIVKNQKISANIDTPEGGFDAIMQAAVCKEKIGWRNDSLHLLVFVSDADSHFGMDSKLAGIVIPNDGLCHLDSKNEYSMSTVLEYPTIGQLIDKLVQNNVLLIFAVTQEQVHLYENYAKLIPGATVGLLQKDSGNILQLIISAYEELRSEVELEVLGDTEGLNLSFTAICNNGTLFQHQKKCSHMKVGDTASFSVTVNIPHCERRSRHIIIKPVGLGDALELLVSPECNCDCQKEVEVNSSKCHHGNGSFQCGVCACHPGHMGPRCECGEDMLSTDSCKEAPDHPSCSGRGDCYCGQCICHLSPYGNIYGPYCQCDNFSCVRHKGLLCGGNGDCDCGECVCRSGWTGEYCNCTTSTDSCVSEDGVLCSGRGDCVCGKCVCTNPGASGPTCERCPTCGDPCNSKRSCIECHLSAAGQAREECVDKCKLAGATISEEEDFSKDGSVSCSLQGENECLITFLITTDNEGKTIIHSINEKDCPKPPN

On to `COc1ccc([C@H](CC(=O)O)NC(=O)c2cc(CCC3CCc4cccnc4N3)c[nH]2)cc1F` (mixture of isomers) [Example 2, (3S)-3-(3-Fluoro-4-methoxyphenyl)-3-(4-(2-(1,2,3,4-tetrahydro-1,8-naphthyridin-2-yl)ethyl)-1H-pyrrole-2-carboxamido)propanoic Acid], for which the IC50 in assay [1] was determined as 3.75 nM. This counts as single-digit nanomolar.
For the molecule `Cc1cc(C)c(S(=O)(=O)N[C@@H](CNC(=O)c2cc(CCC3CCc4cccnc4N3)c[nH]2)C(=O)O)c(C)c1` (mixture of isomers) [Example 24, (2S)-3-(4-(2-(1,2,3,4-Tetrahydro-1,8-naphthyridin-2-yl)ethyl)-1H-pyrrole-2-carboxamido)-2-((2,4,6-trimethylphenyl)sulfonamido)propanoic Acid], the half-maximal inhibitory concentration (IC50) in assay [1] came out at 0.61 nM; in assay [2] it was 3.03 nM; in assay [3], 0.23 nM; in assay [4] it was 11.9 nM; in assay [5], 2 nM.
For the molecule `COc1ccc([C@H](CC(=O)O)NC(=O)c2cc(CCc3ccc4c(n3)NCCC4)c[nH]2)cc1F` [Example 1, (S)-3-(3-Fluoro-4-methoxyphenyl)-3-(4-(2-(5,6,7,8-tetrahydro-1,8-naphthyridin-2-yl)ethyl)-1H-pyrrole-2-carboxamido)propanoic Acid], in assay [1], the IC50 stood at 2.55 nM. This counts as single-digit nanomolar.
Still for that read-out and setting: the value for `COc1ccc([C@@H](CC(=O)O)NC(=O)c2cc(CCc3ccc4c(n3)NCCC4)c[nH]2)cc1F` [Example 3] was 229 nM.
For `COc1ccc([C@H](CC(=O)O)NC(=O)c2cc(CCc3ccc4c(n3)NCCC4)cn2C)cc1F` [Example 4], in assay [1], the IC50 was found to be 22.1 nM.
`CCn1cc(CCc2ccc3c(n2)NCCC3)cc1C(=O)N[C@@H](CC(=O)O)c1ccc(OC)c(F)c1` [Example 5] showed an IC50 in assay [1] of 50.3 nM.
Still for that read-out and setting: the figure for `COc1ccc([C@H](CC(=O)O)NC(=O)c2cc(CCc3ccc4c(n3)NCCC4)c(C)[nH]2)cc1F` [Example 6] is 5.93 nM; for `COc1ccc([C@H](CC(=O)O)NC(=O)c2cc(CCc3ccc4c(n3)NCCC4)c[nH]2)cn1` [Example 7] it is 4 nM.
The same measure, in the same setting: the figure for `COc1ccc([C@H](CC(=O)O)NC(=O)c2cc(CCc3ccc4c(n3)NCCC4)cn2C)cn1` [Example 8] is 22.5 nM; for `CCn1cc(CCc2ccc3c(n2)NCCC3)cc1C(=O)N[C@@H](CC(=O)O)c1ccc(OC)nc1` [Example 9] it is 46.8 nM.
For the molecule `COc1ccc([C@H](CC(=O)O)NC(=O)c2cc(CCc3ccc4c(n3)NCCC4)c(C)[nH]2)cn1` [Example 10], the IC50 in assay [1] came out at 3.96 nM; in assay [3], 10.4 nM; in assay [4], 415 nM; in assay [5], 2.49 nM.
On to `O=C(O)C[C@H](NC(=O)c1cc(CCc2ccc3c(n2)NCCC3)c[nH]1)c1cc(Cl)cc(Cl)c1` [Example 11], for which, in assay [1], the IC50 amounted to 2.03 nM.
In assay [1], `CC(C)(C)c1cc(Br)cc([C@H](CC(=O)O)NC(=O)c2cc(CCc3ccc4c(n3)NCCC4)c[nH]2)c1` [Example 12] had an IC50 of 0.63 nM.
On to `Cc1ncc(C(CC(=O)O)NC(=O)c2cc(CCc3ccc4c(n3)NCCC4)c[nH]2)cn1` (stereo not shown) [Example 13], for which the IC50 was 6.7 nM in assay [1], 4000 nM in assay [2], 3.84 nM in assay [3] and 4.59 nM in assay [5].
The corresponding values for `COc1ncc(C(CC(=O)O)NC(=O)c2cc(CCc3ccc4c(n3)NCCC4)c[nH]2)cn1` (stereo not shown) [Example 14] are 7.17 nM, 3710 nM, 5.68 nM and 4.69 nM.
On to `O=C(O)CC(NC(=O)c1cc(CCc2ccc3c(n2)NCCC3)c[nH]1)c1cncnc1` (stereo not shown) [Example 15], for which the IC50 in assay [1] was determined as 11.9 nM. That is a double-digit nanomolar value.
`O=C(O)C[C@H](NC(=O)c1cc(CCc2ccc3c(n2)NCCC3)c[nH]1)c1cnc2ccccc2c1` [Example 16]: the IC50 in assay [1] was 1.1 nM; in assay [2], 360 nM; in assay [3] it was 1.73 nM; in assay [5], 3.44 nM.
`O=C(O)C[C@H](NC(=O)c1cc(CCc2ccc3c(n2)NCCC3)c[nH]1)c1ccc2c(c1)OCC2` [Example 17]: the IC50 was determined as 4.63 nM in assay [1]; 1220 nM in assay [2]; 0.85 nM in assay [3]; 3760 nM in assay [4]; 3.68 nM in assay [5].
In assay [1], `O=C(O)CC(NC(=O)c1cc(CCc2ccc3c(n2)NCCC3)c[nH]1)c1cnc2ccccc2n1` (stereo not shown) [Example 18] showed an IC50 of 25.9 nM.
In assay [1], `COc1ccc([C@H](CC(=O)O)NC(=O)c2cc(-c3ccc4c(n3)NCCC4)c[nH]2)cc1F` [Example 19] yielded a half-inhibitory concentration (IC50) of 81 nM.
In assay [1], `COc1ccc([C@H](CC(=O)O)NC(=O)c2cc(CCCc3ccc4c(n3)NCCC4)c[nH]2)cn1` [Example 20] gave an IC50 of 22.4 nM.
Take `Cc1ncc([C@H](CC(=O)O)NC(=O)c2cc(CCCc3ccc4c(n3)NCCC4)c[nH]2)cn1` [Example 21]: the IC50 in assay [1] stood at 167 nM. Against the preceding molecule, the IC50 is about 7.5-fold higher.
For the molecule `COc1ncc([C@H](CC(=O)O)NC(=O)c2cc(CCCc3ccc4c(n3)NCCC4)c[nH]2)cn1` [Example 22], in assay [1], the half-inhibitory concentration (IC50) came out at 14.5 nM.
On to `Cc1cc(C)c(S(=O)(=O)N[C@@H](CNC(=O)c2cc(CCc3ccc4c(n3)NCCC4)c[nH]2)C(=O)O)c(C)c1` [Example 23, (S)-3-(4-(2-(5,6,7,8-Tetrahydro-1,8-naphthyridin-2-yl)ethyl)-1H-pyrrole-2-carboxamido)-2-((2,4,6-trimethylphenyl)sulfonamido)propanoic Acid], for which the IC50 came out at 1.02 nM in assay [1], 0.54 nM in assay [3], 9.06 nM in assay [4] and 5.36 nM in assay [5].
As for `O=C(N[C@@H](CNC(=O)c1cc(CCc2ccc3c(n2)NCCC3)c[nH]1)C(=O)O)OCc1ccccc1` [Example 25, (S)-2-(((Benzyloxy)carbonyl)amino)-3-(4-(2-(5,6,7,8-tetrahydro-1,8-naphthyridin-2-yl)ethyl)-1H-pyrrole-2-carboxamido)propanoic Acid, TFA], the IC50 in assay [1] came out at 0.34 nM; in assay [3], 0.16 nM; in assay [4], 12.6 nM; in assay [5], 1.5 nM.
The matching figures for `O=C(N[C@@H](CNC(=O)c1cc(CCc2ccc3c(n2)NCCC3)c[nH]1)C(=O)O)OC1CCCC1` [Example 26, (S)-2-(((Cyclopentyloxy)carbonyl)amino)-3-(4-(2-(5,6,7,8-tetrahydro-1,8-naphthyridin-2-yl)ethyl)-1H-pyrrole-2-carboxamido)propanoic Acid]: 0.28 nM, 0.09 nM, 8.78 nM and 1.67 nM.
